Assay results from the CheMixHub drug solubility set.

Assay: xn = mol fraction of the nth substance listed, in the solute-free solvent

FC(F)(F)c1cccnc1Cl + CN(C)C=O + CCO
solubility (g/100 g solution)
Conditions | 263.15 K | 268.15 K | 273.15 K | 278.15 K | 283.15 K | 288.15 K | 293.15 K | 298.15 K | 303.15 K
x2 = 0.2013 | 36.2 | 43.5 | 51.6 | 59 | 67 | 74.8 | 82.5 | 89.4 | 95.4
x2 = 0.3352 | 41.2 | 48.1 | 56.3 | 62.5 | 69.5 | 77 | 83.4 | 90.3 | 96
x2 = 0.5291 | 47.4 | 53.8 | 60.5 | 66.9 | 73.2 | 79.9 | 85.7 | 91.4 | 96.8
x2 = 0.7496 | 51.2 | 57.2 | 63.7 | 69.6 | 75.4 | 81.3 | 86.7 | 92.5 | 97.7

CCOc1ccccc1C(N)=O + CO + CC#N
solubility (g/100 g solution)
Conditions | x2 = 0.1 | x2 = 0.2 | x2 = 0.3 | x2 = 0.4 | x2 = 0.5 | x2 = 0.6 | x2 = 0.7 | x2 = 0.8 | x2 = 0.9
293.15 K | 3.86 | 5.1 | 6.26 | 7.41 | 8.25 | 8.88 | 8.99 | 8.83 | 8.26
298.15 K | 4.9 | 6.33 | 7.81 | 9.11 | 10.1 | 11 | 11.1 | 10.7 | 10.1
303.15 K | 6.47 | 8.36 | 10.2 | 11.5 | 12.8 | 13.6 | 13.7 | 13.4 | 12.6
308.15 K | 8.43 | 10.8 | 12.9 | 14.4 | 15.6 | 16.5 | 16.4 | 16.3 | 15.1
313.15 K | 10.8 | 13.5 | 16 | 18.1 | 19.3 | 20.4 | 20.4 | 19.8 | 18.5
318.15 K | 13.7 | 16.8 | 19.7 | 21.9 | 23.4 | 24.4 | 24.5 | 24 | 22.7
323.15 K | 17.3 | 21 | 24 | 26.4 | 28.3 | 29.2 | 29.3 | 28.5 | 27.1

Cl.NC(Cc1ccccc1)C(=O)OCc1ccccc1 (stereo not drawn) + CO + CC(C)=O
solubility (g/100 g solution)
Conditions | x2 = 0.1 | x2 = 0.2 | x2 = 0.3 | x2 = 0.4 | x2 = 0.5 | x2 = 0.6 | x2 = 0.7 | x2 = 0.8 | x2 = 0.9
283.15 K | 0.104 | 0.31 | 1.34 | 2.29 | 3.85 | 5.52 | 7.5 | 9.27 | 11.1
293.15 K | 0.238 | 0.665 | 1.52 | 2.75 | 4.55 | 6.53 | 8.94 | 11 | 13.1
303.15 K | 0.306 | 0.778 | 1.83 | 3.37 | 5.58 | 7.97 | 10.7 | 13.6 | 15.5
313.15 K | 0.482 | 0.999 | 2.35 | 4.15 | 6.96 | 9.8 | 13.2 | 15.8 | 18.4
323.15 K | 0.588 | 1.3 | 2.96 | 5.13 | 8.44 | 12.1 | 15.8 | 19.4 | 21.6

C#CC1(O)CCC2C3CCC4=CC(=O)CCC4C3C(=C)CC21CC (stereo not drawn) + CO + O
solubility (g/100 g solution)
Conditions | x2 = 0.05881 | x2 = 0.1233 | x2 = 0.1942 | x2 = 0.2727 | x2 = 0.3599 | x2 = 0.4576 | x2 = 0.5675 | x2 = 0.6923 | x2 = 0.835
273.15 K | 0.987 | 1.09 | 1.19 | 1.31 | 1.32 | 1.44 | 1.45 | 1.62 | 3.44
278.15 K | 1.1 | 1.19 | 1.31 | 1.46 | 1.47 | 1.6 | 1.7 | 1.9 | 3.82
283.15 K | 1.2 | 1.28 | 1.43 | 1.59 | 1.61 | 1.74 | 1.95 | 2.15 | 4.22
288.15 K | 1.31 | 1.39 | 1.56 | 1.75 | 1.77 | 1.88 | 2.21 | 2.46 | 4.66
293.15 K | 1.42 | 1.49 | 1.68 | 1.91 | 1.92 | 2.03 | 2.49 | 2.8 | 5.13
298.15 K | 1.52 | 1.59 | 1.8 | 2.05 | 2.08 | 2.17 | 2.74 | 3.18 | 5.62
303.15 K | 1.62 | 1.68 | 1.91 | 2.21 | 2.23 | 2.3 | 3.01 | 3.61 | 6.16
308.15 K | 1.71 | 1.76 | 2.01 | 2.35 | 2.38 | 2.43 | 3.28 | 4.07 | 6.71
313.15 K | 1.79 | 1.84 | 2.12 | 2.48 | 2.51 | 2.54 | 3.54 | 4.52 | 7.27
318.15 K | 1.86 | 1.92 | 2.21 | 2.62 | 2.66 | 2.64 | 3.78 | 5.05 | 7.92
323.15 K | 1.93 | 1.98 | 2.29 | 2.73 | 2.78 | 2.72 | 4 | 5.59 | 8.54
